Measurements: patent US20060264460A1 (Wyeth, priority 2005, published 2006)

Target: T1, human Cot/Tpl2 kinase (Homo sapiens, UniProt P41279)
T1 construct: human Cot/Tpl2 kinase construct encoding residues 30-398; 6His (N); made in house; host or cells: Sf9 insect cells, baculovirus system (BD Biosciences)
Experiment: Tpl2/Cot kinase assay: GST-MEK1 phosphorylation detected by ELISA (DELFIA Eu)
Format: biochemical
Conditions: 0.4 nM Tpl2, 35 nM GST-MEK1, 50 uM ATP, 1 h at 30° C.
Method: Sf9 cells expressing the kinase were lysed in 50 mM NaPhosphate pH=8; 300 mM NaCl; 5 mM imidazole; 0.1 mM EGTA; 25 mM beta-glycerophosphate; 1% TX-100, 1% glycerol; 6 mM beta-mercaptoethanol and protease inhibitors. The lysate was clarified by centrifugation and was loaded onto a Ni-Sepharose column. The column was washed with 50 mM NaPhosphate pH=8; 300 mM NaCl; 15 mM imidazole; 1% glycerol; and 6 mM beta-mercaptoethanol. His-Tpl2 was eluted with 50 mM NaPhosphate pH=8; 300 mM NaCl; 250 mM imidazole; 1% glycerol; and 6 mM beta-mercaptoethanol. The eluted protein was further purified by size exclusion chromatography. Fractions corresponding to monomeric Tpl2 were then used in the assay.
Tpl2/Cot activity was directly assayed using GST-MEK1 as a substrate. GST-MEK1 phosphorylation on serine residues 217 and 221 was detected by ELISA. 0.4 nM Tpl2 was incubated with 35 nM GST-MEK1 in a kinase reaction buffer containing 20 mM MOPS pH=7.2; 50 uM ATP; 20 mM MgCl2; 1 mM DTT; 25 mM β-glycerophosphate; 5 mM EGTA; and 1 mM sodium orthovanadate for 1 h at 30° C. The compounds of the inventions solubilized in 100% DMSO were pre-diluted in assay buffer so that the final concentration of DMSO in the reaction was 1%. The kinase reaction was carried out in 100 ul volume on 96 well plates. The kinase reaction was then stopped with the addition of 100 mM EDTA. […] After a 1 hour incubation at room temperature, the detection plate was washed 4 times with TBST (TBS+0.05% Tween 20) and then incubated for another hour at room temperature with anti phospho-MEK1 antibody (Cell Signaling) 1:1000 in 10 mM MOPS 7.5; 150 mM NaCl; 0.05% Tween 20; 0.1% Gelatin; 0.02% NaN3; and 1% BSA. The detection plate was washed again and incubated for 30 min with DELFIA Europium (Eu) labeled goat anti-rabbit IgG (Perkin-Elmer), 1:4000 in the same buffer used for the primary incubation. After a final wash, Eu detection solution was added to each well and the Eu signal was measured in a Wallac Victor^2 Multilabel Counter. IC50 calculations were performed using the XLfit software package (IDBS, Guildford, UK).

T1 sequence (P41279 30-398): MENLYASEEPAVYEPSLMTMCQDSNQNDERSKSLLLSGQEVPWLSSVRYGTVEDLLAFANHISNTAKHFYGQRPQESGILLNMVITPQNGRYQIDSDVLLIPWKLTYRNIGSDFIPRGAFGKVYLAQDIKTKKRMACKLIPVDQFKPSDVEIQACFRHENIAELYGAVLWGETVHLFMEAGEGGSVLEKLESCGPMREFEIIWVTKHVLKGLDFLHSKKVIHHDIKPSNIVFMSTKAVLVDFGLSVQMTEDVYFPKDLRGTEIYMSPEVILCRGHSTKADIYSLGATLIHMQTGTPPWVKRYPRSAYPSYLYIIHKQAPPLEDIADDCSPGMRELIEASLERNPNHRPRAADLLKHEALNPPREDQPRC

Compared with CN(C)C(=O)c1cc(NCCN2CCOCC2)cc2c(Nc3cccc(Cl)c3)c(C#N)cnc12 [Example 68, 4-(3-chlorophenylamino)-3-cyano-N,N-dimethyl-6-(2-morpholinoethylamino)quinoline-8-carboxamide], N#Cc1cnc2c(Br)cc(NCCN3CCOCC3)cc2c1Nc1cccc(Cl)c1 [Example 69, 8-bromo-4-(3-chlorophenylamino)-6-(2-morpholinoethylamino)quinoline-3-carbonitrile] is 26-fold lower in IC50: 11 µM for the first, 0.42 µM for the second.

Compared with N#Cc1cnc2c(Br)cc(NCc3cccnc3)cc2c1Nc1cccc(Cl)c1 [Example 70, 8-bromo-4-(3-chlorophenylamino)-6-(pyridin-3-ylmethylamino)quinoline-3-carbonitrile], N#Cc1cnc2c(I)cc(NCc3cccnc3)cc2c1Nc1cccc(Cl)c1 [Example 79, 4-(3-chlorophenylamino)-8-iodo-6-(pyridin-3-ylmethylamino)quinoline-3-carbonitrile] is 16-fold higher in IC50: 0.036 µM for the first, 0.57 µM for the second.

CN(C)C(=O)c1cc(NCc2cccnc2)cc2c(Nc3cccc(Cl)c3)c(C#N)cnc12 [Example 71, 4-(3-chlorophenylamino)-3-cyano-N,N-dimethyl-6-(pyridin-3-ylmethylamino)quinoline-8-carboxamide] and CN(C)C(=O)c1cc(NCc2cccnc2)cc2c(Nc3ccc(F)c(Cl)c3)c(C#N)cnc12 [Example 94, 4-(3-chloro-4-fluorophenylamino)-3-cyano-N,N-dimethyl-6-(pyridin-3-ylmethylamino)quinoline-8-carboxamide] are within 1.5-fold of each other in IC50: 0.4 µM for the first, 0.53 µM for the second.

First: N#Cc1cnc2ccc(NCc3cccnc3)cc2c1Nc1cccc(Cl)c1 [Example 72, 4-(3-chlorophenylamino)-6-(pyridin-3-ylmethylamino)quinoline-3-carbonitrile]
Second: N#Cc1cnc2c(C#N)cc(NCc3cccnc3)cc2c1Nc1cccc(Cl)c1 [Example 74, 4-(3-chlorophenylamino)-6-(pyridin-3-ylmethylamino)quinoline-3,8-dicarbonitrile]
The IC50 of the first is 5.8-fold lower: 0.024 µM for the first, 0.14 µM for the second. The first is the more potent here.

N#Cc1cnc2c(NC(=O)c3ccccc3)cc(NCc3cccnc3)cc2c1Nc1cccc(Cl)c1 [Example 73, N-(4-(3-chlorophenylamino)-3-cyano-6-(pyridin-3-ylmethylamino)quinolin-8-yl)benzamide] and N#Cc1cnc2c(C(=O)NCc3ccccc3)cc(NCc3cccnc3)cc2c1Nc1cccc(Cl)c1 [Example 80, N-benzyl-4-(3-chlorophenylamino)-3-cyano-6-(pyridin-3-ylmethylamino)quinoline-8-carboxamide] cannot be ordered by IC50: > 40 µM for the first, > 40 µM for the second.

First: N#Cc1cnc2c(NC=O)cc(NCc3cccnc3)cc2c1Nc1cccc(Cl)c1 [Example 75, N-(4-(3-chlorophenylamino)-3-cyano-6-(pyridin-3-ylmethylamino)quinolin-8-yl)formamide]
Second: CC(C)C(=O)Nc1cc(NCc2cccnc2)cc2c(Nc3cccc(Cl)c3)c(C#N)cnc12 [Example 81, N-(4-(3-chlorophenylamino)-3-cyano-6-(pyridin-3-ylmethylamino)quinolin-8-yl)isobutyramide]
The IC50 of the first is lower: 2.6 µM for the first, > 40 µM for the second. The first is the more potent here.

Going from N#Cc1cnc2c(Br)cc(NCc3cnc[nH]3)cc2c1Nc1ccc(F)c(Cl)c1 [Example 76, 6-((1H-imidazol-5-yl)methylamino)-8-bromo-4-(3-chloro-4-fluorophenylamino)quinoline-3-carbonitrile] to CN(C)C(=O)c1cc(NCc2cnc[nH]2)cc2c(Nc3ccc(F)c(Cl)c3)c(C#N)cnc12 [Example 87, 6-((1H-imidazol-5-yl)methylamino)-4-(3-chloro-4-fluorophenylamino)-3-cyano-N,N-dimethylquinoline-8-carboxamide], the IC50 rises from 0.0068 µM to 0.13 µM (19-fold). The first is the more potent here.

N#Cc1cnc2c(Br)cc(NCc3cccnc3)cc2c1Nc1ccc(F)c(Cl)c1 [Example 77, 8-bromo-4-(3-chloro-4-fluorophenylamino)-6-(pyridin-3-ylmethylamino) quinoline-3-carbonitrile] and N#Cc1cnc2c(Br)cc(NCc3ccccn3)cc2c1Nc1ccc(F)c(Cl)c1 [Example 78, 8-bromo-4-(3-chloro-4-fluorophenylamino)-6-(pyridin-2-ylmethylamino)quinoline-3-carbonitrile] are within 1.5-fold of each other in IC50: 0.11 µM for the first, 0.075 µM for the second.

Compared with CN(C)C(=O)c1cc(NCC2CCCCC2)cc2c(Nc3ccc(F)c(Cl)c3)c(C#N)cnc12 [Example 82, 4-(3-chloro-4-fluorophenylamino)-3-cyano-6-(cyclohexylmethylamino)-N,N-dimethylquinoline-8-carboxamide], CN(C)C(=O)c1cc(NCc2ccco2)cc2c(Nc3ccc(F)c(Cl)c3)c(C#N)cnc12 [Example 84, 4-(3-chloro-4-fluorophenylamino)-3-cyano-6-(furan-2-ylmethylamino)-N,N-dimethylquinoline-8-carboxamide] is higher in IC50: 3.9 µM for the first, > 40 µM for the second. The first is the more potent here.

Going from CN(C)C(=O)c1cc(NCc2nc3ccccc3n2C)cc2c(Nc3ccc(F)c(Cl)c3)c(C#N)cnc12 [Example 83, 4-(3-chloro-4-fluorophenylamino)-3-cyano-N,N-dimethyl-6-((1-methyl-1H-benzo[d]imidazol-2-yl)methylamino)quinoline-8-carboxamide] to CN(C)C(=O)c1cc(NCc2ccccn2)cc2c(Nc3ccc(F)c(Cl)c3)c(C#N)cnc12 [Example 91, 4-(3-chloro-4-fluorophenylamino)-3-cyano-N,N-dimethyl-6-(pyridin-2-ylmethylamino)quinoline-8-carboxamide], the IC50 rises from 0.063 µM to 0.36 µM (5.7-fold).

Going from CN(C)C(=O)c1cc(NCc2cccc(C#N)c2)cc2c(Nc3ccc(F)c(Cl)c3)c(C#N)cnc12 [Example 85, 4-(3-chloro-4-fluorophenylamino)-3-cyano-6-(3-cyanobenzylamino)-N,N-dimethylquinoline-8-carboxamide] to Cc1cccc(CNc2cc(C(=O)N(C)C)c3ncc(C#N)c(Nc4ccc(F)c(Cl)c4)c3c2)c1 [Example 92, 4-(3-chloro-4-fluorophenylamino)-3-cyano-N,N-dimethyl-6-(3-methylbenzylamino)quinoline-8-carboxamide], the IC50 rises from 0.67 µM to > 40 µM.

Going from CN(C)C(=O)c1cc(NCc2ccc(C#N)cc2)cc2c(Nc3ccc(F)c(Cl)c3)c(C#N)cnc12 [Example 86, 4-(3-chloro-4-fluorophenylamino)-3-cyano-6-(4-cyanobenzylamino)-N,N-dimethylquinoline-8-carboxamide] to CN(C)C(=O)c1cc(NCc2ccn[nH]2)cc2c(Nc3ccc(F)c(Cl)c3)c(C#N)cnc12 [Example 89, 6-((1H-pyrazol-5-yl)methylamino)-4-(3-chloro-4-fluorophenylamino)-3-cyano-N,N-dimethylquinoline-8-carboxamide], the IC50 falls from 1.1 µM to 0.29 µM (3.8-fold). The second is the more potent here.

Going from CN(C)C(=O)c1cc(NCc2ccc(CO)o2)cc2c(Nc3ccc(F)c(Cl)c3)c(C#N)cnc12 [Example 88, 4-(3-chloro-4-fluorophenylamino)-3-cyano-6-((5-(hydroxymethyl)furan-2-yl)methylamino)-N,N-dimethylquinoline-8-carboxamide] to Cc1cc(CNc2cc(C(=O)N(C)C)c3ncc(C#N)c(Nc4ccc(F)c(Cl)c4)c3c2)n(C)n1 [Example 90, 4-(3-chloro-4-fluorophenylamino)-3-cyano-6-((1,3-dimethyl-1-H-pyrazol-5-yl)methylamino)-N, N-dimethylquinoline-8-carboxamide], the IC50 rises from 0.25 µM to 1.7 µM (6.8-fold).

First: CC(C)NC(=O)c1cc(NCc2cccnc2)cc2c(Nc3ccc(F)c(Cl)c3)c(C#N)cnc12 [Example 93, 4-(3-chloro-4-fluorophenylamino)-3-cyano-N-isopropyl-6-(pyridin-3-ylmethylamino)quinoline-8-carboxamide]
Second: N#Cc1cnc2ccc(NCc3cccnc3)cc2c1Nc1ccc(C(N)=O)cc1 [Example 99, 4-(3-cyano-6-(pyridin-3-ylmethylamino)quinolin-4-ylamino)benzamide]
The IC50 of the first is higher: > 40 µM for the first, 24.1 µM for the second. The second is the more potent here.

Going from N#Cc1cnc2c(Br)cc(NCc3cnc[nH]3)cc2c1NC1CCCC1 [Example 96, 6-((1H-imidazol-5-yl)methylamino)-8-bromo-4-(cyclopentylamino)quinoline-3-carbonitrile] to N#Cc1cnc2c(Br)cc(NCc3cnc[nH]3)cc2c1NC1CCCCCC1 [Example 97, 6-((1H-imidazol-5-yl)methylamino)-8-bromo-4-(cycloheptylamino)quinoline-3-carbonitrile], the IC50 falls from 0.44 µM to 0.23 µM (1.9-fold).

CC(C)(C)Nc1c(C#N)cnc2c(Br)cc(NCc3cnc[nH]3)cc12 [Example 98, 6-((1H-imidazol-5-yl)methylamino)-8-bromo-4-(tert-butylamino)quinoline-3-carbonitrile] gave an IC50 of 1.5 µM.
